In brackets after ≈: the same amount, converted by molar mass. Like-named read-outs stand apart in the source and are kept apart here. Ends that are not written are not given here. Peptide text beside a SMILES is read from it.
Tests used:
C. albicans (KCTC 7270) = assay: microbe, parasite or virus in culture; format: cell-based, Candida albicans; settings: YPD/PBS, 24 to 30 h, 28 °C, read-out: Minimum Inhibitory Concentrations
Procedure: (§1) The fungal strains C. albicans (KCTC 7270), C. catenulate (7642), C. intermidia (7234), C. rugosa (7324), C. glabrata (7219) and C. melibiosica (KCTC 7631) were cultured at 28 °C in appropriate media. Fungal cells (final concentration 2 × 10^4 cells/ mL) in 50 μL of YPD media (dextrose 2%, peptone 1% and yeast extract 0.5%) were seeded in each well of a microtiter plate containing 50 μL of two-fold serially diluted peptides in phosphate buffered saline. After incubation for 24 to 30 h at 28 °C, the lowest concentration of the peptides inhibiting the growth of the fungi was microscopically determined to be the minimum inhibitory concentrations (MICs). The effect of salt concentration on the antifungal activity of the peptides was tested by determining the MICs in the presence of NaCl and MgCl2. Fixed concentrations of NaCl (50, 100 and 150 mM) or MgCl2 (1, 2 and 5 mM) were added to the sodium phosphate buffer (pH 7.2). The effect of pH on the antifungal activity of the peptides was tested by determining peptide MICs in the presence of sodium phosphate buffer at a variety of pH values.

[1] = tested on: C. albicans (CCARM 14001); assay: microbe, parasite or virus in culture; format: cell-based, Candida albicans; settings: fluconazole-resistant strain CCARM 14001, 24 to 30 h, 28 °C, read-out: Minimum Inhibitory Concentrations
[2] = tested on: C. albicans (CCARM 14007); assay: microbe, parasite or virus in culture; format: cell-based, Candida albicans; settings: read-out: Minimum Inhibitory Concentrations
[3] = tested on: C. albicans (CCARM 140020); assay: microbe, parasite or virus in culture; format: cell-based, Candida albicans; settings: read-out: Minimum Inhibitory Concentrations
C. catenulate = assay: microbe, parasite or virus in culture; format: cell-based, Candida catenulate; settings: read-out: Minimum inhibitory concentration
Procedure: as §1

C. rugosa = assay: microbe, parasite or virus in culture; format: cell-based, Candida rugosa; settings: read-out: Minimum inhibitory concentration
Procedure: as §1

C. melibiosica = assay: microbe, parasite or virus in culture; format: cell-based, Candida melibiosica; settings: read-out: Minimum inhibitory concentration
Procedure: as §1

C. glabrata = assay: microbe, parasite or virus in culture; format: cell-based, Candida glabrata; settings: read-out: Minimum inhibitory concentration
Procedure: as §1

C. intermedia = assay: microbe, parasite or virus in culture; format: cell-based, Candida intermedia; settings: read-out: Minimum inhibitory concentration
Procedure: as §1

red blood cells = settings: ref [35], cited from earlier work; for Hemolysis: red blood cells, 200 µM peptide
Excerpt: Furthermore, it maintained its antifungal activity in physiological salt concentrations and at low pH values.

[4] = tested on: HaCaT (human keratinocyte) cells; assay: Cytotoxicity, MTT assay; format: cell-based; settings: 24 h
Procedure: We examined the cytotoxic effects of the peptides using HaCaT (human keratinocyte) cells, which were cultured in Dulbecco’s modified Eagle medium (DMEM) supplemented with antibiotics (100 U/mL penicillin, 100 µg/mL streptomycin) and 10% fetal calf serum at 37 °C in a humidified chamber with atmosphere containing 5% CO2. To measure viable cells and growth inhibition, an MTT colorimetric assay was used. A total of 4 × 10^3 cells was seeded per well into a 96-well plate incubated at 37 °C for 24 h. The next day, cells from plates were treated with various concentrations of the tested peptides. After 24 h incubation at 37 °C, MTT (10 μL) was added at a concentration of 5 mg/mL to each well. The culture supernatants were discarded after a further 4 h, and the remaining precipitate was dissolved by the addition of 100 μL of DMSO into the wells. Absorbance was then measured at a wavelength of 570 nm using an EL800 reader (Bio-Tek instruments, Inc., Winooski, VT, USA).

[5] = Calcein leakage from eukaryotic membrane mimetic liposomes; settings: 2.5 μM lipid, peptide 0.0–0.25 μΜ, 25 min, 25 °C; 100% = 0.1% Triton X-100
Procedure: (§2) Calcein-entrapped LUVs composed of PE–PC–PI–ergosterol (5:4:1:2, w/w/w/w) or PC–CH–SM (1:1:1, w/w/w) were prepared by mixing the dried lipid in buffer solution (containing 70 mM calcein, PBS, pH 7.4). The suspension was freeze-thawed in liquid nitrogen for nine cycles and then extruded through two stacked […] pore-size polycarbonate filters for 16 times using an Avanti Mini-Extruder (Avanti Polar Lipids Inc., Alabaster, AL, USA). Vesicles containing entrapped calcein were separated from free calcein by gel filtration chromatography on a Sephadex G-50 column. Entrapped LUVs in a suspension containing 2.5 μM lipids were then incubated with various concentrations of the peptide (0.0–0.25 μΜ) for 25 min. The release of calcein fluorescence was followed using a spectrofluorometer (Perkin-Elmer LS55, Mid Glamorgan, UK) with appropriate wavelengths (excitation, 480 nm; and emission, 520 nm). […] Spontaneous leakage was determined to be negligible on this timescale. […] The percentage of calcein release was calculated according to the following equation [41]:Release (%) = 100 × (F − Fo)/(Ft − Fo) (Ex. 480 nm and Em. 520 nm)(1) where F represent the fluorescence intensity before the addition of the detergent, Ft represents the fluorescence intensity after the addition of the detergent and Fo represents the fluorescence of the intact vesicles.

[6] = Calcein leakage from fungal membrane mimetic liposomes; settings: 2.5 μM lipid, peptide 0.0–0.25 μΜ, 25 min, 25 °C; 100% = 0.1% Triton X-100; highest P/L ratio tested
Procedure: as §2

C. albicans [7] = assay: SYTOX Green membrane permeabilization; format: cell-based, Candida albicans; settings: 2 × 10^7 cells/mL, 1 µM SYTOX Green, followed for 120 min
Procedure: Membrane permeabilization of C. albicans was studied using the fluorescent dye SYTOX Green (Molecular Probes, Eugene, OR, USA). Fungal cells were grown to mid-logarithmic growth phase then centrifuged, washed and resuspended in PBS. Cells were suspended in PBS (2 × 10^7 cells/mL) and incubated with 1 µM SYTOX Green for 15 min in the dark prior to the influx assay. At 2–3 min after initiating data collection, 1/2× or 1× MIC peptides were added to the cell suspensions. Due to the binding of the dye to intracellular DNA, the increases in SYTOX Green fluorescence was measured for 120 min (excitation and emission wavelengths were 485 nm and 520 nm, respectively). Lysis of the cells in Triton X-100 (0.1%) or melittin gave maximum fluorescence.

C. albicans [8] = assay: Fluorescence microscopy of PI cell permeabilization; format: cell-based, Candida albicans; settings: 8 μM KW4 or 4 μM melittin, 10, 20 and 30 min, 28 °C
Procedure: The cell permeability was monitored using the DNA-staining fluorescent probe PI as previously described. For this experiment, C. albicans cells were grown in YPD broth with shaking at 200 rpm overnight at 28 °C. Cells were harvested by centrifugation (4000 rpm for 10 min), washed and suspended in PBS to yield 2 × 10^6 cells/mL; 100 μL of C. albicans suspensions (2 × 10^6 cells/mL) were incubated with 5 μL from respective peptide aqueous stock solutions to yield a final peptide concentration of 8 μM KW4 peptide or 4 μM melittin (as a control peptide) for 10, 20 and 30 min at 28 °C. Next, PI was added to each sample at a final concentration of 1 μg/mL and the plate was incubated at 28 °C for 5 min. The effects of the peptides on C. albicans were visualized by the EVOS FL Auto 2 imaging system (Invitrogen, Waltham, MA, USA). Cells without added peptide served as a control.

[9] = tested on: RNA obtained from C. albicans; assay: RNA gel retardation assay; format: binding, Candida albicans; settings: Supplementary Figure S2
Procedure: Briefly, RNA was extracted from C. albicans using the TRI reagent (Molecular Research Center, Cincinnati, OH, USA) according to the manufacturer’s instructions. Purified RNA was collected and resuspended in RNAse-free water. Then, the yeast RNA (10 µg) was mixed with peptide at different concentrations, 2.5–30 µg in 15 µL of 10 mM Tris, 1 mM EDTA buffer (pH 8.0). After 10 min incubation at room temperature, the solution was subjected to electrophoresis on a 1% agarose gel in Tris Borate EDTA (TBE) buffer. Gel retardation was visualized under UV illumination using a Bio-Rad Gel Documentation system.

For `OC(Cn1cncn1)(Cn1cncn1)c1ccc(F)cc1F` [Fluconazole, fluconazole, reference compound], the MIC (C. albicans (KCTC 7270); Candida albicans, KCTC7270, 2 × 10^4 cells/mL) was 16 µM, the MIC ([1]; Candida albicans, CCARM14001) was greater than 128 µM and the MIC ([2]; Candida albicans, CCARM14007, fluconazole-resistant strain CCARM 14007, 24 to 30 h, 28 °C) was greater than 128 µM. The MIC ([3]; Candida albicans, CCARM140020, fluconazole-resistant strain CCARM 140020, 24 to 30 h, 28 °C) was greater than 128 µM, the MIC (C. catenulate; Candida, C. catenulate) was 16 µM and the MIC (C. rugosa; Diutina rugosa, C. rugosa) was 16 µM. It also gave an MIC (C. melibiosica; Helenozyma melibiosica, C. melibiosica) of 16 µM, an MIC (C. glabrata; Nakaseomyces glabratus, C. glabrata) of 8 µM and an MIC (C. intermedia; Sungouiella intermedia, C. intermedia) of 16 µM.

Work on `NCCCC[C@H](NC(=O)[C@H](Cc1c[nH]c2ccccc12)NC(=O)[C@@H](N)CCCCN)C(=O)N[C@@H](Cc1c[nH]c2ccccc12)C(N)=O` [KW2, KWKW-NH2] (H-KWKW-NH2) yielded an MIC [1] greater than 128 µM, an MIC (C. catenulate) greater than 128 µM and an MIC (C. rugosa) greater than 128 µM. For the same compound, the MIC (C. melibiosica) was greater than 128 µM, the MIC (C. glabrata) was greater than 128 µM and the MIC (C. intermedia) was greater than 128 µM. The Hemolysis (red blood cells) was 0%.

For `CC[C@H](C)[C@H](NC(=O)CN)C(=O)NCC(=O)N[C@@H](C)C(=O)N[C@H](C(=O)N[C@@H](CC(C)C)C(=O)N[C@@H](CCCCN)C(=O)N[C@H](C(=O)N[C@@H](CC(C)C)C(=O)N[C@H](C(=O)N[C@H](C(=O)NCC(=O)N[C@@H](CC(C)C)C(=O)N1CCC[C@H]1C(=O)N[C@@H](C)C(=O)N[C@@H](CC(C)C)C(=O)N[C@H](C(=O)N[C@@H](CO)C(=O)N[C@@H](Cc1c[nH]c2ccccc12)C(=O)N[C@H](C(=O)N[C@@H](CCCCN)C(=O)N[C@@H](CCCNC(=N)N)C(=O)N[C@@H](CCCCN)C(=O)N[C@@H](CCCNC(=N)N)C(=O)N[C@@H](CCC(N)=O)C(=O)N[C@@H](CCC(N)=O)C(N)=O)[C@@H](C)CC)[C@@H](C)CC)[C@@H](C)O)[C@@H](C)O)C(C)C)C(C)C` [Melittin, melittin, reference compound], the MIC (C. albicans (KCTC 7270); 2 × 10^4 cells/mL) was 4 µM, the MIC [1] was 16 µM (≈ 45.5 µg/mL) and the MIC ([2]; fluconazole-resistant strain CCARM 14007, 24 to 30 h, 28 °C) was 8 µM (≈ 22.8 µg/mL). For the same compound, the MIC ([3]; fluconazole-resistant strain CCARM 140020, 24 to 30 h, 28 °C) was 8 µM (≈ 22.8 µg/mL), the MIC (C. catenulate; C. catenulate) was 8 µM and the MIC (C. rugosa; C. rugosa) was 8 µM. It also gave an MIC (C. melibiosica; C. melibiosica) of 8 µM, an MIC (C. glabrata; C. glabrata) of 4 µM and an MIC (C. intermedia; C. intermedia) of 8 µM. For the same compound, the “Cytotoxicity against HaCaT cells” value ([4]; 12.5 μM) was 100%, the Cell survival ([4]; HaCaT cells, 200 µM peptide) was 0% and the “Calcein leakage from PC–CH–SM liposomes” value [5] was 90%. The “Calcein leakage from PE–PC–PI–ergosterol liposomes” value [6] was 80%, the “Time to complete membrane permeabilization (SYTOX green)” value (C. albicans [7]) was no more than 35 min and the “PI uptake seen by fluorescence microscopy” value (C. albicans [8]) was “allowed the uptake of PI”.

For KWKWKW-NH2 [KW3, KWKWKW-NH2], the MIC [1] was greater than 128 µM, the MIC (C. catenulate) was 16 µM and the MIC (C. rugosa) was 32 µM. It also gave an MIC (C. melibiosica) of 32 µM, an MIC (C. glabrata) of 32 µM and an MIC (C. intermedia) of 32 µM. For the same compound, the Hemolysis (red blood cells) was 0%.

KWKWKWKW-NH2 [KW4] showed an MIC [1] of 32 µM, an MIC ([2]; CCARM 14007) of 32 µM and an MIC ([3]; CCARM 140020) of 32 µM. It also gave an MIC (C. catenulate) of 8 µM, an MIC (C. rugosa) of 8 µM and an MIC (C. melibiosica) of 8 µM. For the same compound, the MIC (C. glabrata) was 8 µM, the MIC (C. intermedia) was 8 µM and the Hemolysis (red blood cells) was 8%. The “Hemolytic activity” value (red blood cells) was “no hemolytic activity”.

Compound KWKWKWKWKW-NH2 [KW5] has an MIC [1] of 8 µM, an MIC ([2]; CCARM 14007) of 16 µM and an MIC ([3]; CCARM 140020) of 8 µM. The MIC (C. catenulate) was 8 µM, the MIC (C. rugosa) was 8 µM and the MIC (C. melibiosica) was 8 µM. The MIC (C. glabrata) was 4 µM, the MIC (C. intermedia) was 8 µM and the Hemolysis (red blood cells) was 71%.

In the case of “indolicidin (ILPWKWPWWPWRR; ends and bridges not checked; UniProt P33046 131-143, looked up) [AMP which can act intracellularly]”, the “RNA band shift in gel retardation” value [9] was “did cause a similar band shift”.

In the case of magainin II, the “RNA band shift in gel retardation” value [9] was “did not cause a band shift”.

— PMC7285485, “Antifungal and Antibiofilm Activities and the Mechanism of Action of Repeating Lysine-Tryptophan Peptides against Candida albicans” (Microorganisms, 2020)
